# Measured values: the supplement of paper PMC9663587
# Assays:
# Paclitaxel = compound: CC(=O)O[C@H]1C(=O)[C@@]2(C)[C@H]([C@H](OC(=O)c3ccccc3)[C@]3(O)C[C@H](OC(=O)[C@H](O)[C@@H](NC(=O)c4ccccc4)c4ccccc4)C(C)=C1C3(C)C)[C@]1(OC(C)=O)CO[C@@H]1C[C@@H]2O [Paclitaxel]
# THZ531 [1] = compound: T1, CN(C)C/C=C/C(=O)Nc1ccc(C(=O)N2CCC[C@@H](Nc3ncc(Cl)c(-c4c[nH]c5ccccc45)n3)C2)cc1 [THZ531]
# BSJ-01-175 = compound: CN(C)C/C=C/C(=O)Nc1ccc(O[C@@H]2CCC[C@@H](Nc3ncc(Cl)c(-c4c[nH]c5ccccc45)n3)C2)cc1 [BSJ-01-175]
# senexin b = compound: CN1CCN(C(=O)c2ccc3cc(CCNc4ncnc5ccc(C#N)cc45)ccc3c2)CC1 [senexin b]
# Rucaparib = compound: CNCc1ccc(-c2[nH]c3cc(F)cc4c3c2CCNC4=O)cc1 [Rucaparib]
# Cediranib/AZD2171 = compound: COc1cc2c(Oc3ccc4[nH]c(C)cc4c3F)ncnc2cc1OCCCN1CCCC1 [Cediranib/AZD2171]
# Pictilisib/GDC0941 = compound: CS(=O)(=O)N1CCN(Cc2cc3nc(-c4cccc5[nH]ncc45)nc(N4CCOCC4)c3s2)CC1 [Pictilisib/GDC0941]
# Ceritinib/LDK378 = compound: Cc1cc(Nc2ncc(Cl)c(Nc3ccccc3S(=O)(=O)C(C)C)n2)c(OC(C)C)cc1C1CCNCC1 [Ceritinib/LDK378]
# Tivantinib/ARQ197 = compound: O=C1NC(=O)[C@@H](c2cn3c4c(cccc24)CCC3)[C@@H]1c1c[nH]c2ccccc12 [Tivantinib/ARQ197]
# YKL-5-124 = compound: C=CC(=O)Nc1ccc(C(=O)Nc2[nH]nc3c2CN(C(=O)N[C@H](CN(C)C)c2ccccc2)C3(C)C)cc1 [YKL-5-124]; assay: GR value, 72 h; higher = faster growth (1 = untreated, <0 = killing);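 further: breast cancer and non-malignant breast epithelial lines, nine half-log doses, viable cells counted by Hoechst and LIVE/DEAD dye imaging versus time-zero plates and DMSO controls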
# BSJ-03-123 = compound: CC(=O)c1c(C)c2cnc(Nc3ccc(N4CCN(CCOCCOCCOCCNC(=O)COc5cccc6c5C(=O)N(C5CCC(=O)NC5=O)C6=O)CC4)cn3)nc2n(C2CCCC2)c1=O [BSJ-03-123]; assay: as above
# [2] = compound: CC(=O)c1c(C)c2cnc(Nc3ccc(N4CCNCC4)cn3)nc2n(C2CCCC2)c1=O; assay: as above
# [3] = compound: CCN1CCN(Cc2ccc(Nc3ncc(F)c(-c4cc(F)c5nc(C)n(C(C)C)c5c4)n3)nc2)CC1; assay: as above
# [4] = compound: CCc1cnn2c(NCc3ccc[n+]([O-])c3)cc(N3CCCC[C@H]3CCO)nc12; assay: as above
# LEE011/Ribociclib = compound: CN(C)C(=O)c1cc2cnc(Nc3ccc(N4CCNCC4)cn3)nc2n1C1CCCC1 [LEE011/Ribociclib]; assay: as above
# THZ531 [5] = compound: T1, THZ531; assay: as above
# THZ1 = compound: CN(C)C/C=C/C(=O)Nc1ccc(C(=O)Nc2cccc(Nc3ncc(Cl)c(-c4c[nH]c5ccccc45)n3)c2)cc1 [THZ1]; assay: as above
# 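Wherever GR50, 72 h is given: breast cancer and non-malignant breast epithelial cell lines, Deep Dye Drop or Dye Drop imaging, nine half-log doses, GR normalized to time-zero plates and DMSO-only controls.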
cell line,measurement,setting,value
MGH312,"GR50, 72 h",Paclitaxel,0.00266 µM
same,"GR50, 72 h",THZ531 [1],0.0332 µM
same,"GR50, 72 h",BSJ-01-175,0.00657 µM
same,"GR50, 72 h",senexin b,0.511 µM
same,"GR50, 72 h",Rucaparib,> 10 µM
same,"GR50, 72 h",Cediranib/AZD2171,3.88 µM
same,"GR50, 72 h",Pictilisib/GDC0941,0.0806 µM
same,"GR50, 72 h",Ceritinib/LDK378,1.23 µM
same,"GR50, 72 h",Tivantinib/ARQ197,0.379 µM
same,GR value,YKL-5-124; 0.001 µM,0.624 GR
same,GR value,YKL-5-124; 0.003162 µM,0.384 GR
same,GR value,YKL-5-124; 0.01 µM,0.182 GR
same,GR value,YKL-5-124; 0.03162 µM,0.299 GR
same,GR value,YKL-5-124; 0.1 µM,0.104 GR
same,GR value,YKL-5-124; 0.3162 µM,0.0051 GR
same,GR value,YKL-5-124; 1 µM,-0.083 GR
same,GR value,YKL-5-124; 3.162 µM,-0.264 GR
same,GR value,YKL-5-124; 10 µM,-0.924 GR
same,GR value,BSJ-03-123; 0.001 µM,1.11 GR
same,GR value,BSJ-03-123; 0.003162 µM,1.25 GR
same,GR value,BSJ-03-123; 0.01 µM,1.02 GR
same,GR value,BSJ-03-123; 0.03162 µM,1.22 GR
same,GR value,BSJ-03-123; 0.1 µM,1.12 GR
same,GR value,BSJ-03-123; 0.3162 µM,0.909 GR
same,GR value,BSJ-03-123; 1 µM,0.827 GR
same,GR value,BSJ-03-123; 3.162 µM,0.933 GR
same,GR value,BSJ-03-123; 10 µM,-0.91 GR
same,GR value,[2]; 0.0003162 µM,1.2 GR
same,GR value,[2]; 0.001 µM,1.09 GR
same,GR value,[2]; 0.003162 µM,1.2 GR
same,GR value,[2]; 0.01 µM,1.04 GR
same,GR value,[2]; 0.03162 µM,1.09 GR
same,GR value,[2]; 0.1 µM,1.21 GR
same,GR value,[2]; 0.3162 µM,1.11 GR
same,GR value,[2]; 1 µM,1.18 GR
same,GR value,[2]; 3.162 µM,1.04 GR
same,GR value,[3]; 0.001 µM,1.06 GR
same,GR value,[3]; 0.003162 µM,1.17 GR
same,GR value,[3]; 0.01 µM,1.15 GR
same,GR value,[3]; 0.03162 µM,1.12 GR
same,GR value,[3]; 0.1 µM,0.975 GR
same,GR value,[3]; 0.3162 µM,1.03 GR
same,GR value,[3]; 1 µM,0.836 GR
same,GR value,[3]; 3.162 µM,0.308 GR
same,GR value,[3]; 10 µM,-0.466 GR
same,GR value,[4]; 0.0001 µM,0.917 GR
same,GR value,[4]; 0.0003162 µM,1.1 GR
same,GR value,[4]; 0.001 µM,1.09 GR
same,GR value,[4]; 0.003162 µM,1.04 GR
same,GR value,[4]; 0.01 µM,0.584 GR
same,GR value,[4]; 0.03162 µM,-0.846 GR
same,GR value,[4]; 0.1 µM,-0.927 GR
same,GR value,[4]; 0.3162 µM,-0.951 GR
same,GR value,[4]; 1 µM,-0.949 GR
same,GR value,LEE011/Ribociclib; 0.001 µM,1.21 GR
same,GR value,LEE011/Ribociclib; 0.003162 µM,1.13 GR
same,GR value,LEE011/Ribociclib; 0.01 µM,1.08 GR
same,GR value,LEE011/Ribociclib; 0.03162 µM,1.21 GR
same,GR value,LEE011/Ribociclib; 0.1 µM,0.945 GR
same,GR value,LEE011/Ribociclib; 0.3162 µM,0.964 GR
same,GR value,LEE011/Ribociclib; 1 µM,0.894 GR
same,GR value,LEE011/Ribociclib; 3.162 µM,0.89 GR
same,GR value,LEE011/Ribociclib; 10 µM,1.33 GR
same,GR value,THZ531 [5]; 0.0001 µM,1.09 GR
same,GR value,THZ531 [5]; 0.0003162 µM,1.17 GR
same,GR value,THZ531 [5]; 0.001 µM,0.736 GR
same,GR value,THZ531 [5]; 0.003162 µM,1.06 GR
same,GR value,THZ531 [5]; 0.01 µM,1.32 GR
same,GR value,THZ531 [5]; 0.03162 µM,0.538 GR
same,GR value,THZ531 [5]; 0.1 µM,-0.928 GR
same,GR value,THZ531 [5]; 0.3162 µM,-0.947 GR
same,GR value,THZ531 [5]; 1 µM,-0.909 GR
same,GR value,THZ1; 0.0001 µM,1.22 GR
same,GR value,THZ1; 0.0003162 µM,0.923 GR
same,GR value,THZ1; 0.001 µM,0.962 GR
same,GR value,THZ1; 0.003162 µM,0.662 GR
same,GR value,THZ1; 0.01 µM,0.287 GR
same,GR value,THZ1; 0.03162 µM,-0.892 GR
same,GR value,THZ1; 0.1 µM,-0.905 GR
same,GR value,THZ1; 0.3162 µM,-0.92 GR
same,GR value,THZ1; 1 µM,-0.934 GR
